Measurements reported in ChEMBL document CHEMBL3808387, “Discovery of IWP-051, a Novel Orally Bioavailable sGC Stimulator with Once-Daily Dosing Potential in Humans” (ACS Med Chem Lett, 2016).
Converted amounts (≈) assume the structure as drawn. Values belong to the molecule of their own block, whether it stands above or below them.

Assays:
[1] = target: Soluble guanylate cyclase (Homo sapiens, UniProt O75343+P33402+Q02108+Q02153); assay: Activation of SGC in HEK293 cells assessed as cGMP production after 20 mins by LC-MS/MS analysis in presence of NO-donor DETA-NONOate; format: cell-based
Soluble guanylate cyclase, sequence (Q02153 whole entry): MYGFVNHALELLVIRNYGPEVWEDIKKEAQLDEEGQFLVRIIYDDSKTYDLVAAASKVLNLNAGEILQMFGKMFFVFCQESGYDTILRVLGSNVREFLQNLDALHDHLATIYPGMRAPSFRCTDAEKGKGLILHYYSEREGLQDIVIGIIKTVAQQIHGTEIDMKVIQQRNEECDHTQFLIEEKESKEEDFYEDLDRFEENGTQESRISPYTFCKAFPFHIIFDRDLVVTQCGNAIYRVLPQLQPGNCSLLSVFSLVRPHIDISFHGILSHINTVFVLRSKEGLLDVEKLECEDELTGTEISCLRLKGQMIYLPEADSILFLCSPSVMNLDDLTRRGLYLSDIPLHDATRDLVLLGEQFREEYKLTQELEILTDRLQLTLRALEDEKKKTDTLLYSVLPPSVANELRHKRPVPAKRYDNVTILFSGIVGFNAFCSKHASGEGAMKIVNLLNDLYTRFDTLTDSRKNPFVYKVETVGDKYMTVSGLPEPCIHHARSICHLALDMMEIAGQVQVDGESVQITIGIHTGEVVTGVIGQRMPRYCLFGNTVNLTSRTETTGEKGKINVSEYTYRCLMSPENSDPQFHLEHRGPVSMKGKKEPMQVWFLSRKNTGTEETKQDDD
Soluble guanylate cyclase, sequence (O75343 whole entry): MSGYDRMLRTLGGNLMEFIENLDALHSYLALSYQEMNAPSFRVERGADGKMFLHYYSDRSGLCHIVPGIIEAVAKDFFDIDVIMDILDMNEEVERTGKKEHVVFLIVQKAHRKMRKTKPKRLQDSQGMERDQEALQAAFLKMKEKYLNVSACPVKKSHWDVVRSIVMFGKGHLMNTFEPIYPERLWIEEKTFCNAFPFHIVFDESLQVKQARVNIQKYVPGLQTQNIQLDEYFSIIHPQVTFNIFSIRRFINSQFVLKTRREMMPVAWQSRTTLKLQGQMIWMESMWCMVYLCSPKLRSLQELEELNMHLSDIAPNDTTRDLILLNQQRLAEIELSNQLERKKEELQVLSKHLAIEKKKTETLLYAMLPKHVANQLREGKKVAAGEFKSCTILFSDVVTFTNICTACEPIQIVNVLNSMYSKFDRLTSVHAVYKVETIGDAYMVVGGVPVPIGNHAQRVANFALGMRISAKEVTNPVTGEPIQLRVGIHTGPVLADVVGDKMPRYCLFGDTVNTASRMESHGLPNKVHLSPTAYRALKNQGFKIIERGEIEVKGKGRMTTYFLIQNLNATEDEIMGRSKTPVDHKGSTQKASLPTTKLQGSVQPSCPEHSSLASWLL
Soluble guanylate cyclase, sequence (P33402 whole entry): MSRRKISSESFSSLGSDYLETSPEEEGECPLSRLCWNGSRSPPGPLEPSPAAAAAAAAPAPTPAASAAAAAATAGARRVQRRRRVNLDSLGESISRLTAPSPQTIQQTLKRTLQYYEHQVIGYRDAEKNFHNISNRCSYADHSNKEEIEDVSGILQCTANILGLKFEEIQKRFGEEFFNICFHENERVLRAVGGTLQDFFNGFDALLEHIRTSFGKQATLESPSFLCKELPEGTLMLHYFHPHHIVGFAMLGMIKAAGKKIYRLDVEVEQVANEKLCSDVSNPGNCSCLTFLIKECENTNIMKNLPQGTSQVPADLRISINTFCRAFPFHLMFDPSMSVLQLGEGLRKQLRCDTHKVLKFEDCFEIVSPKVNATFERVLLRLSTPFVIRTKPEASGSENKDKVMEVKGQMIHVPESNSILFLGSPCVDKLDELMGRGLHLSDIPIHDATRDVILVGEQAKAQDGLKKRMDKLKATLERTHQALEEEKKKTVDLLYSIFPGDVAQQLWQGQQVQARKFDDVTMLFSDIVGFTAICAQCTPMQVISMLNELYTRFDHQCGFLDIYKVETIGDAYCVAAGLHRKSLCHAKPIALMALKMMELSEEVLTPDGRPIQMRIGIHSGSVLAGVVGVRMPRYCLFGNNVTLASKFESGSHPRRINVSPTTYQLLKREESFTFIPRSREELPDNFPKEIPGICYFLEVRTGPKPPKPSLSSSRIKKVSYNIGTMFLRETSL
Soluble guanylate cyclase, sequence (Q02108 whole entry): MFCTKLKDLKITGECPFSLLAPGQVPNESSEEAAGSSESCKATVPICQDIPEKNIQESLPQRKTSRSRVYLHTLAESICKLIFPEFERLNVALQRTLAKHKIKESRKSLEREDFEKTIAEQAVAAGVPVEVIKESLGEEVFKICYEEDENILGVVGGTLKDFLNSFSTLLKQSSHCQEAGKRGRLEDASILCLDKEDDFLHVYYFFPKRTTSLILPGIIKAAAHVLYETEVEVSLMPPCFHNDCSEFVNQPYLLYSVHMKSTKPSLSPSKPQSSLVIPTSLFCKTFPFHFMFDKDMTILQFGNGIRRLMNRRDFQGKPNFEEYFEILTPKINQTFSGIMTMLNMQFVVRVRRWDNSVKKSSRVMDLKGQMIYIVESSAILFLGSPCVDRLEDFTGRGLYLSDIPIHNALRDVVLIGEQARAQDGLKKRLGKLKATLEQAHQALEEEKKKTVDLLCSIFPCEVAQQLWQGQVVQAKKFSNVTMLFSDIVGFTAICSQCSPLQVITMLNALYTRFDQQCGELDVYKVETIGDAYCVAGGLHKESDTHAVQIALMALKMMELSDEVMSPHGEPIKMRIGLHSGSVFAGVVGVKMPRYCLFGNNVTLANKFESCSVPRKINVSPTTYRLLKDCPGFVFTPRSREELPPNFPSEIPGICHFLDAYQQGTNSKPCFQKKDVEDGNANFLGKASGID

[2] = Intrinsic clearance in human liver microsomes assessed per mg of protein at 2 uM after 10 to 30 mins by LC/MS/MS analysis in presence of NADPH; format: ADME; settings: read-out: CLH
[3] = Intrinsic clearance in Sprague-Dawley rat liver microsomes assessed per mg of protein at 2 uM after 10 to 30 mins by LC/MS/MS analysis in presence of NADPH; format: ADME; settings: read-out: CLH
[4] = target: Soluble guanylate cyclase (Homo sapiens) (UniProt Q02153+O75343+P33402+Q02108); assay: Activation of SGC in HEK293 cells assessed as cGMP production at 30 uM after 20 mins by LC-MS/MS analysis in presence of NO-donor DETA-NONOate; format: cell-based
[5] = test system: Rattus norvegicus; assay: fCmax in Sprague-Dawley rat at 1 mg/kg, po after 5 hrs by LC-MS/MS analysis; format: ADME, organism-based; settings: in vivo
[6] = target: 3',5'-cyclic-AMP phosphodiesterase 4D (Homo sapiens) (UniProt Q08499); assay: Inhibition of PDE4D2 (unknown origin) at 10 uM
3',5'-cyclic-AMP phosphodiesterase 4D (Homo sapiens), sequence (Q08499 whole entry): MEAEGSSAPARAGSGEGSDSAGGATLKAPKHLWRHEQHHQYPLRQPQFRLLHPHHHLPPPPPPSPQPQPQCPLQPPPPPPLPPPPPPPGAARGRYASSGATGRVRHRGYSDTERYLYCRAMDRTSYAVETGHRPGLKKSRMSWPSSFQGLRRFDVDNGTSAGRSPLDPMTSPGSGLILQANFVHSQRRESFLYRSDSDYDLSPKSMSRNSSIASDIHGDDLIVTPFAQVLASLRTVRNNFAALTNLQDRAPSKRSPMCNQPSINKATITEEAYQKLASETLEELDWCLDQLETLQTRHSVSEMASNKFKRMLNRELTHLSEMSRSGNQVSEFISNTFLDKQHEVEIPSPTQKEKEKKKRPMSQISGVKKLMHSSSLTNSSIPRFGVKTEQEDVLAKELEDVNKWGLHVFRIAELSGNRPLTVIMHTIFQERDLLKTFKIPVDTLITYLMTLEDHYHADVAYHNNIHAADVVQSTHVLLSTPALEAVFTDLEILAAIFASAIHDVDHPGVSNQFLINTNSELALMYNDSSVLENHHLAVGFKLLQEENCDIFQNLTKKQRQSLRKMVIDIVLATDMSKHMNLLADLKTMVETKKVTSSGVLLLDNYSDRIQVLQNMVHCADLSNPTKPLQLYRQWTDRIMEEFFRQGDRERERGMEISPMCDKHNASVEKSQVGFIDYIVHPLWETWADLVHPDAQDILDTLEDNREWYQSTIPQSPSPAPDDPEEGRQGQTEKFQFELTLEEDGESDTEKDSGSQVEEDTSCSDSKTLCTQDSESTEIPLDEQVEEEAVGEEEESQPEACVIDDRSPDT

[7] = Tmax in CD-1 mouse at 0.1 mg/kg, iv or 1 mg/kg, po by LC-MS/MS analysis; format: ADME, organism-based; settings: in vivo
[8] = Oral bioavailability in CD-1 mouse at 1 mg/kg by LC-MS/MS analysis; format: ADME, organism-based; settings: in vivo
[9] = Cmax in Sprague-Dawley rat at 1 mg/kg, po by LC-MS/MS analysis; format: ADME, organism-based; set-up: dose 1 mg/kg, route oral; settings: in vivo
[10] = Thermodynamic solubility of the compound at pH 9.2; format: physicochemical; settings: buffer, read-out: Therm_solubility
[11] = target: Dual specificity calcium/calmodulin-dependent 3',5'-cyclic nucleotide phosphodiesterase 1B (Homo sapiens) (UniProt Q01064); assay: Inhibition of PDE1B (unknown origin) at 10 uM
[12] = target: cGMP-specific 3',5'-cyclic phosphodiesterase (Homo sapiens) (UniProt O76074); assay: Inhibition of PDE5 (unknown origin) at 10 uM
[13] = target: cGMP-inhibited 3',5'-cyclic phosphodiesterase 3A (Homo sapiens) (UniProt Q14432); assay: Inhibition of PDE3A (unknown origin) at 10 uM
[14] = Cmax in CD-1 mouse at 1 mg/kg, po by LC-MS/MS analysis; format: ADME, organism-based; set-up: dose 1 mg/kg, route oral; settings: in vivo
[15] = AUC(0 to infinity) in Sprague-Dawley rat at 0.1 mg/kg, iv or 1 mg/kg, po by LC-MS/MS analysis; format: ADME, organism-based; settings: in vivo
[16] = Tmax in Sprague-Dawley rat at 0.1 mg/kg, iv or 1 mg/kg, po by LC-MS/MS analysis; format: ADME, organism-based; settings: in vivo
[17] = Volume of distribution at steady state in Beagle dog at 0.1 mg/kg, iv or 1 mg/kg, po by LC-MS/MS analysis; format: ADME, organism-based, Canis lupus familiaris; settings: in vivo, read-out: Vdss
[18] = target: cGMP-dependent 3',5'-cyclic phosphodiesterase (Homo sapiens) (UniProt O00408); assay: Inhibition of PDE2A (unknown origin) at 10 uM
cGMP-dependent 3',5'-cyclic phosphodiesterase (Homo sapiens), sequence (O00408 whole entry): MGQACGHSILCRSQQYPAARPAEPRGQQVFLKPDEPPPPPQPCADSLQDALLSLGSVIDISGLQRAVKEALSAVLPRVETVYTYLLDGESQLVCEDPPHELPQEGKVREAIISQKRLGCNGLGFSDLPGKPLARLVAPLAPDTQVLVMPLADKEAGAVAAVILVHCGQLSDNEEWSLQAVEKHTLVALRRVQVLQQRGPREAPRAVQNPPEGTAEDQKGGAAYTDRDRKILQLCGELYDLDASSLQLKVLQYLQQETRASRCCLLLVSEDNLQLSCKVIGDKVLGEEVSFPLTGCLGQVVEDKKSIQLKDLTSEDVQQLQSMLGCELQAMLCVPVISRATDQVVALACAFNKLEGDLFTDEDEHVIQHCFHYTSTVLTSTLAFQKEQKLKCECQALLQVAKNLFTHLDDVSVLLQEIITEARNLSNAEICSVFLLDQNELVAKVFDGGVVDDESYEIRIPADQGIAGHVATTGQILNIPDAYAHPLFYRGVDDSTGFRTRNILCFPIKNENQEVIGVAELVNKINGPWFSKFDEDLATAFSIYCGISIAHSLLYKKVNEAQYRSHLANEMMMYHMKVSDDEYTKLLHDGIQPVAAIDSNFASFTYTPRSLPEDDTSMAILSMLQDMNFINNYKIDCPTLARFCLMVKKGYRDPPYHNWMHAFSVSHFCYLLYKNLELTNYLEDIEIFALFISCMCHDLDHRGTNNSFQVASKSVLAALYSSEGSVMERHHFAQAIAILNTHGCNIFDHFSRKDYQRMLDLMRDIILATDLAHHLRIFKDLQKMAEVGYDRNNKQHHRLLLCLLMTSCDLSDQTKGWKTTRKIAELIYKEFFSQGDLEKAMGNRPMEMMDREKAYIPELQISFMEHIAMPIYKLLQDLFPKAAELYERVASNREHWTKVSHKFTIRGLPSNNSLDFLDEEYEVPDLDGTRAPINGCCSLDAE

[19] = Oral bioavailability in Sprague-Dawley rat at 1 mg/kg by LC-MS/MS analysis; format: ADME, organism-based; settings: in vivo
[20] = Apparent permeability of compound from apical to basolateral side; format: physicochemical; settings: not told
[21] = target: cAMP and cAMP-inhibited cGMP 3',5'-cyclic phosphodiesterase 10A (Homo sapiens) (UniProt Q9Y233); assay: Inhibition of PDE10A (unknown origin) at 10 uM
[22] = Volume of distribution at steady state in Sprague-Dawley rat at 0.1 mg/kg, iv or 1 mg/kg, po by LC-MS/MS analysis; format: ADME, organism-based; settings: in vivo, read-out: Vdss
[23] = test system: Rattus norvegicus; assay: Reduction in mean arterial pressure in normotensive Sprague-Dawley rat at 30 mg/kg, po measured after 12 to 24 hrs; format: functional, Artery
[24] = Tmax in Beagle dog at 0.1 mg/kg, iv or 1 mg/kg, po by LC-MS/MS analysis; format: ADME, organism-based, Canis lupus familiaris; settings: in vivo
[25] = Oral bioavailability in Beagle dog at 1 mg/kg by LC-MS/MS analysis; format: ADME, organism-based, Canis lupus familiaris; settings: in vivo
[26] = test system: Rattus norvegicus; assay: Reduction in mean arterial pressure in normotensive Sprague-Dawley rat at 10 mg/kg, po measured after 12 to 24 hrs; format: functional, Artery
[27] = AUC(0 to infinity) in CD-1 mouse at 0.1 mg/kg, iv or 1 mg/kg, po by LC-MS/MS analysis; format: ADME, organism-based; settings: in vivo
[28] = Volume of distribution at steady state in CD-1 mouse at 0.1 mg/kg, iv or 1 mg/kg, po by LC-MS/MS analysis; format: ADME, organism-based; settings: in vivo, read-out: Vdss
[29] = Thermodynamic solubility of the compound at pH 7.4; format: physicochemical; settings: buffer, read-out: Therm_solubility
[30] = target: T1, Kappa-type opioid receptor (Homo sapiens, UniProt P41145); assay: Binding affinity to KOP receptor (unknown origin) at 10 uM
T1 sequence (P41145 whole entry): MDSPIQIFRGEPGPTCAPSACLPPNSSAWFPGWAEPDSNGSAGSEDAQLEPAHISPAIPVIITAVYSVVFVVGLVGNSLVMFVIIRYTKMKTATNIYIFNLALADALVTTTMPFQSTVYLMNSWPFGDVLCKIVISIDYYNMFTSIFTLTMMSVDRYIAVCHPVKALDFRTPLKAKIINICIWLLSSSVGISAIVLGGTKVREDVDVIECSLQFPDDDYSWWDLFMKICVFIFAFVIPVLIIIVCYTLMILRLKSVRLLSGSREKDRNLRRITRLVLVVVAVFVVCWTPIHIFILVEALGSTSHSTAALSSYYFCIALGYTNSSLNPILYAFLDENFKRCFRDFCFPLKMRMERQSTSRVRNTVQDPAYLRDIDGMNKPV

[31] = Cmax in Beagle dog at 1 mg/kg, po by LC-MS/MS analysis; format: ADME, organism-based, Canis lupus familiaris; set-up: dose 1 mg/kg, route oral; settings: in vivo
[32] = Dissociation constant, pKa of the compound; format: physicochemical
[33] = AUC(0 to infinity) in Beagle dog at 0.1 mg/kg, iv or 1 mg/kg, po by LC-MS/MS analysis; format: ADME, organism-based, Canis lupus familiaris; settings: in vivo
[34] = test system: Rattus norvegicus; assay: Reduction in mean arterial pressure in po dosed normotensive Sprague-Dawley rat measured after 12 to 24 hrs; format: functional; settings: Artery
[35] = Terminal half-life in Sprague-Dawley rat at 1 mg/kg, iv by LC-MS/MS analysis; format: ADME, organism-based; settings: in vivo, read-out: beta t1/2
[36] = target: T1, Kappa-type opioid receptor; assay: Binding affinity to KOP receptor (unknown origin)
[37] = target: T1, Kappa-type opioid receptor; assay: Agonist activity at KOP receptor (unknown origin)
[38] = Oral bioavailability in Sprague-Dawley rat at 10 mg/kg by LC-MS/MS analysis; format: ADME, organism-based; settings: in vivo

SMILES: O=S(=O)(c1ccc(Cl)cc1)c1cnc(-c2cc(-c3ccon3)n(Cc3ccccc3F)n2)nc1O
EC50 [1]: 160 nM
microsomal CLint at 2 µM [2]: 6 µL/min/mg
microsomal CLint at 2 µM [3]: 15 µL/min/mg

SMILES: Cc1cccc(Cn2nc(-c3ncc(F)c(O)n3)cc2-c2ccon2)c1F
EC50 [1]: 240 nM
microsomal CLint at 2 µM [2]: 8 µL/min/mg
microsomal CLint at 2 µM [3]: 79 µL/min/mg

SMILES: Oc1nc(-c2cc(-c3ccon3)n(Cc3ccccc3F)n2)ncc1Cl
EC50 [1]: 590 nM
microsomal CLint at 2 µM [2]: 7 µL/min/mg
microsomal CLint at 2 µM [3]: 5 µL/min/mg

SMILES: Oc1ccnc(-c2cc(-c3ccon3)n(Cc3ccccc3F)n2)n1
microsomal CLint at 2 µM [2]: 12 µL/min/mg
microsomal CLint at 2 µM [3]: 15 µL/min/mg
Emax [4]: 92%

SMILES: Oc1nc(-c2cc(-c3ccon3)n(Cc3cccc(F)c3F)n2)ncc1F
EC50 [1]: 370 nM
microsomal CLint at 2 µM [2]: 7 µL/min/mg
microsomal CLint at 2 µM [3]: 3 µL/min/mg

SMILES: CN(C)S(=O)(=O)c1cnc(-c2cc(-c3ccon3)n(Cc3ccccc3F)n2)nc1O
microsomal CLint at 2 µM [2]: 8 µL/min/mg
microsomal CLint at 2 µM [3]: 24 µL/min/mg
Emax [4]: 87%

SMILES: Oc1nc(-c2cc(-c3cocn3)n(Cc3ccccc3F)n2)ncc1F
microsomal CLint at 2 µM [2]: 4 µL/min/mg
microsomal CLint at 2 µM [3]: 9 µL/min/mg
Emax [4]: 78%

SMILES: Oc1nc(-c2cc(-c3ccon3)n(Cc3ccccc3F)n2)ncc1C(F)(F)F
microsomal CLint at 2 µM [2]: 19 µL/min/mg
microsomal CLint at 2 µM [3]: 20 µL/min/mg
Emax [4]: 54%

Now from value to molecule, other results behind:

EC50 [1]: 730 nM
microsomal CLint at 2 µM [2]: 179 µL/min/mg
microsomal CLint at 2 µM [3]: 58 µL/min/mg
SMILES: CN(c1ccccc1)S(=O)(=O)c1cnc(-c2cc(-c3ccon3)n(Cc3ccccc3F)n2)nc1O

microsomal CLint at 2 µM [2]: 9 µL/min/mg
microsomal CLint at 2 µM [3]: 16 µL/min/mg
Emax [4]: 70%
SMILES: Cc1nc(-c2cc(-c3ccon3)n(Cc3ccccc3F)n2)nc(O)c1F

microsomal CLint at 2 µM [2]: 23 µL/min/mg
microsomal CLint at 2 µM [3]: 32 µL/min/mg
SMILES: Oc1nc(-c2cc(-c3ccon3)n(CCC(F)(F)F)n2)ncc1F

fCmax [5]: 80 nM
inhibition [6]: < 30%
Tmax [7]: 1.7 h
bioavailability [8]: > 100%
Cmax [9]: 1500 ng/mL
solubility thermodynamic [10]: 142 µg/mL (≈ 400 µM)
inhibition [11]: < 30%
inhibition [12]: < 30%
inhibition [13]: < 30%
Cmax [14]: 1000 ng/mL
AUC(0-inf) [15]: 25000 ng·h/mL
Tmax [16]: 5.3 h
Vd [17]: 0.095 L/kg
inhibition [18]: < 30%
bioavailability [19]: 96%
Papp A→B [20]: 21.8 ×10⁻⁶ cm/s
inhibition [21]: < 30%
Vd [22]: 0.18 L/kg
Tmax [24]: 3.3 h
bioavailability [25]: 45%
AUC(0-inf) [27]: 4500 ng·h/mL
Vd [28]: 1.3 L/kg
solubility thermodynamic [29]: 3 µg/mL (≈ 8.44 µM)
Activity [30]: 21%
Cmax [31]: 3500 ng/mL
pKa [32]: 5.75
AUC(0-inf) [33]: 41700 ng·h/mL
SMILES: Oc1nc(-c2cc(-c3ccon3)n(Cc3ccccc3F)n2)ncc1F
Activity [23]: -30 mmHg
Activity [26]: 10 mmHg
Activity [34]: Dose-dependent effect
minimal effective dose ([34]; read-out: MED): 1 mg/kg

microsomal CLint at 2 µM [3]: 10 µL/min/mg
Emax [4]: 26%
SMILES: Oc1nc(-c2cc(C3CC3)n(Cc3ccccc3F)n2)ncc1F

microsomal CLint at 2 µM [2]: 15 µL/min/mg
microsomal CLint at 2 µM [3]: 7 µL/min/mg
Emax [4]: 44%
SMILES: Oc1nc(-c2cc(-c3ccon3)n(Cc3ncccc3F)n2)ncc1F

microsomal CLint at 2 µM [3]: 4 µL/min/mg
Emax [4]: 68%
SMILES: Oc1nc(-c2cc(-c3ncon3)n(Cc3ccccc3F)n2)ncc1F

EC50 [1]: 530 nM
microsomal CLint at 2 µM [2]: 4 µL/min/mg
microsomal CLint at 2 µM [3]: 4 µL/min/mg
SMILES: O=c1[nH]c(-c2cc(-c3ccon3)n(Cc3ccc(F)cc3F)n2)ncc1F

EC50 [1]: 240 nM
microsomal CLint at 2 µM [2]: 10 µL/min/mg
half-life [35]: 0.433 h
microsomal CLint at 2 µM [3]: 26 µL/min/mg
IC50 [36]: 1200 nM
EC50 [37]: 1500 nM
bioavailability [38]: 53%
SMILES: Nc1ccnc(-c2cc(-c3ccon3)n(Cc3ccccc3F)n2)n1
